Numbers after ± are expanded uncertainties.
Test: osmotic coefficient (dimensionless); mn = molality of the nth substance listed, in mol/kg
Details: 298.1 K, 20 kPa, Liquid, isopiestic method

O=C(O)C(O)C(O)C(=O)O (centres undefined) [2,3-dihydroxybutanedioic acid] + O
Details | osmotic coefficient
m1 = 0.3554 | 0.461 ± 0.023
m1 = 0.51 | 0.382 ± 0.024
m1 = 0.698 | 0.313 ± 0.027
m1 = 1.074 | 0.286 ± 0.028
m1 = 1.268 | 0.285 ± 0.028
m1 = 1.739 | 0.283 ± 0.028
m1 = 2.361 | 0.292 ± 0.03
m1 = 2.404 | 0.292 ± 0.027
m1 = 3.449 | 0.322 ± 0.028
m1 = 4.311 | 0.351 ± 0.025
m1 = 5.203 | 0.379 ± 0.024
m1 = 6.517 | 0.416 ± 0.023
m1 = 7.737 | 0.437 ± 0.022

CC(=O)O [acetic acid] + O
Details | osmotic coefficient
m1 = 0.3254 | 1.034 ± 0.0034
m1 = 0.4489 | 1.014 ± 0.003
m1 = 0.6191 | 0.991 ± 0.013
m1 = 0.7688 | 0.9736 ± 0.0014
m1 = 1.029 | 0.9465 ± 0.0043
m1 = 1.262 | 0.925 ± 0.0036
m1 = 1.638 | 0.8942 ± 0.0068
m1 = 2.236 | 0.852 ± 0.015
m1 = 2.588 | 0.8295 ± 0.0074
m1 = 3.693 | 0.768 ± 0.009
m1 = 4.687 | 0.72 ± 0.011
m1 = 6.292 | 0.652 ± 0.014
m1 = 9.635 | 0.535 ± 0.018
m1 = 14.92 | 0.375 ± 0.03

CCCC(=O)O [butanoic acid] + O
Details | osmotic coefficient
m1 = 0.2966 | 1.051 ± 0.0094
m1 = 0.3972 | 1.03 ± 0.012
m1 = 0.7027 | 0.9809 ± 0.0023
m1 = 0.9898 | 0.9364 ± 0.0052
m1 = 1.539 | 0.8612 ± 0.0079
m1 = 2.501 | 0.755 ± 0.011
m1 = 2.652 | 0.74 ± 0.011
m1 = 4.544 | 0.598 ± 0.016
m1 = 5.353 | 0.553 ± 0.018
m1 = 6.364 | 0.506 ± 0.019
m1 = 7.777 | 0.454 ± 0.023
m1 = 9.598 | 0.402 ± 0.023
m1 = 12 | 0.351 ± 0.026
m1 = 15.29 | 0.302 ± 0.027
m1 = 17.6 | 0.278 ± 0.028

O=C(O)CC(O)(CC(=O)O)C(=O)O [citric acid] + O
Details | osmotic coefficient
m1 = 0.2947 | 1.058 ± 0.006
m1 = 0.3878 | 1.058 ± 0.0043
m1 = 0.6515 | 1.058 ± 0.0041
m1 = 0.8686 | 1.067 ± 0.0061
m1 = 1.039 | 1.073 ± 0.0037
m1 = 1.225 | 1.082 ± 0.004
m1 = 1.753 | 1.12 ± 0.01
m1 = 2.327 | 1.17 ± 0.014
m1 = 2.699 | 1.194 ± 0.0075
m1 = 3.133 | 1.23 ± 0.0089
m1 = 3.816 | 1.288 ± 0.011
m1 = 4.436 | 1.34 ± 0.014
m1 = 5.134 | 1.4 ± 0.016
m1 = 5.522 | 1.44 ± 0.017
m1 = 5.987 | 1.47 ± 0.02
m1 = 6.701 | 1.52 ± 0.02
m1 = 7.6 | 1.58 ± 0.022
m1 = 8.205 | 1.62 ± 0.026

O=CO [formic acid] + O
Details | osmotic coefficient
m1 = 0.3334 | 1.047 ± 0.0031
m1 = 0.6596 | 1.078 ± 0.0039
m1 = 0.7817 | 1.089 ± 0.0046
m1 = 0.9947 | 1.109 ± 0.0045
m1 = 1.248 | 1.133 ± 0.011
m1 = 1.439 | 1.151 ± 0.01
m1 = 1.688 | 1.173 ± 0.0071
m1 = 2.27 | 1.226 ± 0.0098
m1 = 2.667 | 1.26 ± 0.01
m1 = 2.913 | 1.28 ± 0.017
m1 = 3.395 | 1.322 ± 0.013
m1 = 3.782 | 1.35 ± 0.014
m1 = 4.446 | 1.41 ± 0.021
m1 = 4.836 | 1.44 ± 0.018
m1 = 5.352 | 1.48 ± 0.018
m1 = 5.619 | 1.49 ± 0.019

O=C(O)CC(O)C(=O)O (centres undefined) [hydroxybutanedioic acid] + O
Details | osmotic coefficient
m1 = 0.1223 | 1.343 ± 0.013
m1 = 0.2625 | 0.828 ± 0.0078
m1 = 0.3917 | 0.426 ± 0.024
m1 = 0.5398 | 0.351 ± 0.026
m1 = 0.8231 | 0.441 ± 0.022
m1 = 0.9977 | 0.506 ± 0.019
m1 = 1.245 | 0.528 ± 0.018
m1 = 1.848 | 0.531 ± 0.02
m1 = 2.634 | 0.54 ± 0.018
m1 = 3.207 | 0.554 ± 0.017
m1 = 3.996 | 0.566 ± 0.017
m1 = 5.166 | 0.584 ± 0.017
m1 = 6.325 | 0.613 ± 0.017
m1 = 7.352 | 0.626 ± 0.015

O=C(O)CC(=O)O [propanedioic acid] + O
Details | osmotic coefficient
m1 = 0.1216 | 1.144 ± 0.0083
m1 = 0.3009 | 0.456 ± 0.022
m1 = 0.5079 | 0.268 ± 0.029
m1 = 0.6604 | 0.274 ± 0.028
m1 = 0.7994 | 0.314 ± 0.027
m1 = 1.01 | 0.354 ± 0.025
m1 = 1.08 | 0.362 ± 0.026
m1 = 1.631 | 0.373 ± 0.024
m1 = 2.392 | 0.401 ± 0.023
m1 = 3.127 | 0.436 ± 0.022
m1 = 4.097 | 0.455 ± 0.021
m1 = 5.12 | 0.469 ± 0.021
m1 = 6.369 | 0.498 ± 0.019
m1 = 9.545 | 0.525 ± 0.022

CCC(=O)O [propanoic acid] + O
Details | osmotic coefficient
m1 = 0.3425 | 1.054 ± 0.0037
m1 = 0.4819 | 1.036 ± 0.0046
m1 = 0.6261 | 1.018 ± 0.0035
m1 = 0.8086 | 0.9963 ± 0.0012
m1 = 1.054 | 0.9683 ± 0.0028
m1 = 1.294 | 0.942 ± 0.013
m1 = 1.796 | 0.892 ± 0.013
m1 = 2.261 | 0.851 ± 0.015
m1 = 2.918 | 0.7984 ± 0.0078
m1 = 4.125 | 0.718 ± 0.011
m1 = 5.45 | 0.647 ± 0.014
m1 = 7.948 | 0.549 ± 0.018
m1 = 8.132 | 0.542 ± 0.018
m1 = 10.51 | 0.478 ± 0.02
m1 = 12.4 | 0.438 ± 0.023

Reference: the NIST ThermoML archive (doi:10.1016/j.fluid.2012.05.002)
